{
  "source": "patent US20250019335A1",
  "about": "“NOVEL QUINIZARIN DERIVATIVE AND PREPARATION METHOD THEREOF” (BENOBIO CO., LTD., priority 2021, published 2025)",
  "key": {"BRD2(BD2)": {"target": "T1, BRD2(BD2) (Homo sapiens, UniProt P25440)", "T1 construct": "a mixture of 100 nM GST BRD2 (BD1, BD2, BD1+BD2) and 100 nM biotinylated acetyl histone H4", "T1 sequence (P25440 344-453 limits assumed, species assumed)": "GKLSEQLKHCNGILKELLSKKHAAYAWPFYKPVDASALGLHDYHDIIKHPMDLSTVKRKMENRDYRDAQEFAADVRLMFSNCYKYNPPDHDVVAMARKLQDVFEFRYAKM", "assay": "Binding inhibition ability test for BRD2 protein (AlphaScreen, GST BRD2 / biotinylated acetyl histone H4 peptide)", "conditions": "100 nM GST BRD2, 100 nM biotinylated acetyl histone H4 (Lys5, 8, 12, 16) peptide, Alpha Screen", "procedure": "To confirm a binding inhibitory effect of a quinizarin derivative of the present disclosure on a BRD2 protein among BET proteins, the following experiment was performed.\nFirst, a compound was diluted in 1:5 subdilution in an assay buffer from a 10 mM stock in dimethyl sulfoxide (DMSO) in a white Optiplate.\nThen, a mixture of 100 nM GST BRD2 (BD1, BD2, BD1+BD2) and 100 nM biotinylated acetyl histone H4 (Lys5, 8, 12, 16) peptides was added to the diluent, and then each sample was shaking-cultured in the dark at 300 rpm for 30 minutes at room temperature.\nThereafter, signals were measured with a PerkinElmer Envision HTS Multilabel Reader using a PerkinElmer Alpha Screen protocol."}, "HepG2 cells": {"test_system": "HepG2 cells", "assay": "Lipogenesis inhibition in palmitic acid-induced fatty liver HepG2 cells (Oil red O staining)", "assay_type": "cell-based, human", "conditions": "pretreated 1 μM to 10 μM, 100 μM palmitic acid 24 hours", "procedure": "HepG2 cell lines, human liver epithelial cells, were incubated, pretreated with quinizarin and a substance of Example 2 (BBC0504) at concentrations of 1 μM to 10 μM, and treated with 100 μM palmitic acid (PA) for 24 hours to induce fatty liver at a cellular level. After 24 hours, the cells in each sample were immobilized for 1 hour with a phosphate-buffered salt solution containing 7% formaldehyde, washed with PBS, and stained with a 99% isopropanol solution containing 1% Oil red O for 10 minutes. The differentiation degree of adipocytes was measured by dissolving the stained Oil red O in isopropanol and measuring the absorbance at 510 nm.\nReferring to FIG. 11, HepG2 cells, which are human liver epithelial cells, were treated with palmitic acid to induce fatty liver, and the ability to inhibit lipogenesis was confirmed at each concentration in Example 2."}, "SREBP-1": {"test_system": "SREBP-1", "assay": "Expression of liposynthesis factor SREBP-1 in palmitic acid-treated HepG2 cells (RT-PCR)", "assay_type": "cell-based, human", "conditions": "pretreated 1 μM to 10 μM, 100 μM palmitic acid 24 hours", "procedure": "(§1) HepG2 cell lines, human liver epithelial cells, were incubated, pretreated with quinizarin and a substance of Example 2 (BBC0504) at concentrations of 1 μM to 10 μM, and treated with 100 μM palmitic acid (PA) for 24 hours to induce fatty liver at a cellular level. After 24 hours, the expression of lipogenesis-related genes SREBP-1 and FAS in cells in each sample was confirmed using RT-PCR. Each sample was added with a trizol reagent to extract total RNA, and the concentration was confirmed using a spectrophotometer. To synthesize cDNA for each gene, RT-PCR reaction was performed using primers targeting the SREBP-1 and FAS genes. β-actin was used as a control group, and after the reaction was completed, the detected cDNA product was confirmed by electrophoresis on a 1.0% agarose gel.\nFIG. 13 illustrates a result of confirming SREBP-1 expression after treating fatty liver-induced cells for each concentration with a quinizarin derivative according to an embodiment of the present disclosure."}, "FAS": {"test_system": "FAS", "assay": "Expression of liposynthesis factor FAS in palmitic acid-treated HepG2 cells (RT-PCR)", "assay_type": "cell-based, human", "conditions": "pretreated 1 μM to 10 μM, 100 μM palmitic acid 24 hours", "procedure": "as §1\nFIG. 14 illustrates a result of confirming FAS expression after treating fatty liver-induced cells with a quinizarin derivative at each concentration according to an embodiment of the present disclosure."}},
  "data": [
    {"smiles": "O=C1c2ccccc2C(=O)c2c(O)c(-c3ccc(O)c(O)c3)cc(O)c21", "note": "[Example 1]", "values": [
      {"measurement": "IC50", "setting": "BRD2(BD2)", "result": 1.74, "unit": "µM"}
    ]},
    {"smiles": "O=C1c2ccc(-c3ccc(O)c(O)c3)cc2C(=O)c2c(O)ccc(O)c21", "note": "[Example 2]", "values": [
      {"measurement": "IC50", "setting": "BRD2(BD2)", "result": 4.44, "unit": "µM"},
      {"measurement": "lipogenesis amount (Oil red O absorbance at 510 nm)", "setting": "HepG2 cells", "result": "reduced in a concentration-dependent manner"},
      {"measurement": "SREBP-1 gene expression", "setting": "SREBP-1", "result": "reduced depending on a concentration"},
      {"measurement": "FAS gene expression", "setting": "FAS", "result": "reduced depending on a concentration"}
    ]},
    {"smiles": "O=C1c2ccccc2C(=O)c2c(O)cc(-c3ccc(O)c(O)c3)cc21", "note": "[Example 3]", "values": [
      {"measurement": "IC50", "setting": "BRD2(BD2)", "result": 1.75, "unit": "µM"}
    ]},
    {"smiles": "O=C1c2ccccc2C(=O)c2c(OC3COC3)ccc(O)c21", "note": "[Example 4]", "values": [
      {"measurement": "IC50", "setting": "BRD2(BD2)", "result": 3.12, "unit": "µM"}
    ]},
    {"smiles": "O=C1c2ccccc2C(=O)c2c3c(cc(O)c21)OCCO3", "note": "[Example 5]", "values": [
      {"measurement": "IC50", "setting": "BRD2(BD2)", "result": 2.73, "unit": "µM"}
    ]}
  ]
}
